Earlier results as cited in paper PMC9574858, “Linker-Dependent Folding Rationalizes PROTAC Cell Permeability” (Journal of Medicinal Chemistry, 2022).

Biological target: CRBN (Homo sapiens, UniProt Q96SW2)
Set-up: method as in PMID 29358579

CRBN, sequence (Q96SW2 whole entry): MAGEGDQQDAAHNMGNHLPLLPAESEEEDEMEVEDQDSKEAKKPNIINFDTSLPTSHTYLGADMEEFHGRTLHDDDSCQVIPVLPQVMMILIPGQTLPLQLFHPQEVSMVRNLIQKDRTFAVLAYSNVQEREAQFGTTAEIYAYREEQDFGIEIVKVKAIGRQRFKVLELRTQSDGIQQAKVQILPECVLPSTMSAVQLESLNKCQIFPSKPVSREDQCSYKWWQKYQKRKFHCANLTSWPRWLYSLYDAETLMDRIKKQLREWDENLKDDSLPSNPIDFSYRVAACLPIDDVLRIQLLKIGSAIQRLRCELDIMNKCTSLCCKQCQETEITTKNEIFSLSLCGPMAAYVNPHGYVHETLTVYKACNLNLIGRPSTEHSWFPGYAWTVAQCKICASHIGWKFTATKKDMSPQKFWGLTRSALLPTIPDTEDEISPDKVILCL

## O=C1CC[C@H](N2C(=O)c3ccccc3C2=O)C(=O)N1 [S-form of thalidomide, thalidomide]
  affinity for CRBN compared with the R-form: 1 order of magnitude higher
